Assay results as given in ChEMBL document CHEMBL1201862, “PubChem BioAssay data set” (2004).
“And” between values parts separate entries of the source, which are not always exact repeats. Identical values can stand only once.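 Results reflect a 48-hour exposure of cells in 96-well plates to compound at five concentrations. At the GI50, growth is halved.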 The source made the active and inactive calls. Rule as the data show it: active = GI50 up to about 1.1 µM and inactive = higher.

Tests used:
Test in all cases: NCI tumour cell line growth inhibition, 48 h
BT-549 = test system: BT-549
CCRF-CEM = test system: CCRF-CEM
DLD-1 = test system: DLD-1
DMS-114 = test system: DMS-114
DMS-273 = test system: DMS-273
DU-145 = test system: DU-145
HCT-116 = test system: HCT-116
HCT-15 = test system: HCT-15
HOP-18 = test system: HOP-18
HOP-92 = test system: HOP-92
HT-29 = test system: HT-29
Hs-578T = test system: Hs-578T
KM-20L2 = test system: KM-20L2
LXFL 529 = test system: LXFL 529
M19-MEL = test system: M19-MEL
MCF7 = test system: MCF7
MDA-MB-231 = test system: MDA-MB-231
MDA-MB-435 = test system: MDA-MB-435
MDA-N = test system: MDA-N
MOLT-4 = test system: MOLT-4
NCI/ADR-RES = test system: NCI/ADR-RES
PC-3 = test system: PC-3
SF-295 = test system: SF-295
SK-MEL-2 = test system: SK-MEL-2
SNB-78 = test system: SNB-78
SR = test system: SR
T47D = test system: T47D
XF498 = test system: XF498
786-0 = test system: 786-0
A498 = test system: A498
A549 = test system: A549
ACHN = test system: ACHN
CAKI-1 = test system: CAKI-1
COLO 205 = test system: COLO 205
EKVX = test system: EKVX
HCC 2998 = test system: HCC 2998
HL-60 = test system: HL-60
HOP-62 = test system: HOP-62
IGROV-1 = test system: IGROV-1
K562 = test system: K562
KM12 = test system: KM12
LOX IMVI = test system: LOX IMVI
M14 = test system: M14
Malme-3M = test system: Malme-3M
NCI-H226 = test system: NCI-H226
NCI-H23 = test system: NCI-H23
NCI-H460 = test system: NCI-H460
NCI-H522 = test system: NCI-H522
OVCAR-3 = test system: OVCAR-3
OVCAR-4 = test system: OVCAR-4
OVCAR-5 = test system: OVCAR-5
OVCAR-8 = test system: OVCAR-8
RPMI-8226 = test system: RPMI-8226
RXF 393 = test system: RXF 393
SF-268 = test system: SF-268
SF-539 = test system: SF-539
SK-MEL-28 = test system: SK-MEL-28
SK-MEL-5 = test system: SK-MEL-5
SK-OV-3 = test system: SK-OV-3
SN12C = test system: SN12C
SNB-19 = test system: SNB-19
SNB-75 = test system: SNB-75
SW-620 = test system: SW-620
TK-10 = test system: TK-10
U-251 = test system: U-251
UACC-257 = test system: UACC-257
UACC-62 = test system: UACC-62
UO-31 = test system: UO-31

CCN(CC)CCN1C(=O)c2c(c3c4cccc(Cl)c4n(C4OC(CO)C(OC)C(O)C4O)c3c3[nH]c4c(Cl)cccc4c23)C1=O (configuration not stated)
GI50 (BT-549): 0.175 µM (active)
GI50 (CCRF-CEM): < 0.0166 µM (active)
GI50 (DLD-1): 0.0918 µM (active)
GI50 (DMS-114): 0.0413 µM (active)
GI50 (DMS-273): < 0.0178 µM (active)
GI50 (DU-145): 0.0121 µM (active)
GI50 (HCT-116): < 0.0164 µM (active)
GI50 (HCT-15): 0.103 µM and 0.132 µM
GI50 (HOP-18): 0.00101 µM (active)
GI50 (HOP-92): < 34.4 nM (active) and < 24 nM (active)
GI50 (HT-29): < 0.0189 µM (active)
GI50 (Hs-578T): 0.0379 µM (active)
GI50 (KM-20L2): 0.773 µM (active)
GI50 (LXFL 529): < 0.0239 µM (active)
GI50 (M19-MEL): 0.0303 µM (active)
GI50 (MCF7): < 0.01 µM (active)
GI50 (MDA-MB-231): 0.182 µM (active)
GI50 (MDA-MB-435): 0.0147 µM (active)
GI50 (MDA-N): 0.0111 µM (active)
GI50 (MOLT-4): < 10 nM (active) and 17.6 nM (active)
GI50 (NCI/ADR-RES): 0.169 µM (active)
GI50 (PC-3): < 0.0386 µM (active)
GI50 (SF-295): < 0.0165 µM (active)
GI50 (SK-MEL-2): 42.8 nM (active) and 68.1 nM (active)
GI50 (SNB-78): 0.00101 µM (active)
GI50 (SR): < 0.0137 µM (active)
GI50 (T47D): 0.0212 µM (active)
GI50 (XF498): 0.0463 µM (active)

O=S1(=O)N2CN3CN(C2)CN1C3
GI50 (786-0): 30.5 µM (inactive)
GI50 (A498): 223 µM (inactive)
GI50 (A549): 280 µM (inactive)
GI50 (ACHN): 108 µM (inactive)
GI50 (CAKI-1): 205 µM (inactive)
GI50 (CCRF-CEM): > 31.6 µM (inactive)
GI50 (COLO 205): 25.4 µM (inactive)
GI50 (DLD-1): 33.4 µM (inactive)
GI50 (DMS-114): 23.7 µM (inactive)
GI50 (DMS-273): 27 µM (inactive)
GI50 (EKVX): 370 µM (inactive)
GI50 (HCC 2998): 255 µM (inactive)
GI50 (HCT-116): 21.6 µM (inactive)
GI50 (HCT-15): 23.2 µM
GI50 (HL-60): 23.1 µM (inactive)
GI50 (HOP-18): > 50.1 µM (inactive)
GI50 (HOP-62): 234 µM (inactive)
GI50 (HOP-92): > 100 µM (inactive)
GI50 (HT-29): 26 µM (inactive)
GI50 (IGROV-1): 278 µM (inactive)
GI50 (K562): > 31.6 µM (inactive)
GI50 (KM-20L2): > 91.8 µM (inactive)
GI50 (KM12): 93.8 µM (inactive)
GI50 (LOX IMVI): 36.8 µM (inactive)
GI50 (LXFL 529): 18.2 µM (inactive)
GI50 (M14): 36.2 µM (inactive)
GI50 (M19-MEL): 62.1 µM (inactive)
GI50 (MCF7): 56.8 µM (inactive)
GI50 (MOLT-4): 105 µM (inactive)
GI50 (Malme-3M): 129 µM (inactive)
GI50 (NCI-H226): 28.1 µM (inactive)
GI50 (NCI-H23): 20.5 µM (inactive)
GI50 (NCI-H460): 51.5 µM (inactive)
GI50 (NCI-H522): 177 µM (inactive)
GI50 (NCI/ADR-RES): > 100 µM (inactive)
GI50 (OVCAR-3): > 10 µM (inactive)
GI50 (OVCAR-4): 28.7 µM (inactive)
GI50 (OVCAR-5): 208 µM (inactive)
GI50 (OVCAR-8): > 86.5 µM (inactive)
GI50 (RPMI-8226): 28.7 µM (inactive)
GI50 (RXF 393): 56.9 µM (inactive)
GI50 (SF-268): > 58.3 µM (inactive)
GI50 (SF-295): 23.8 µM (inactive)
GI50 (SF-539): > 100 µM (inactive)
GI50 (SK-MEL-28): > 83.6 µM (inactive)
GI50 (SK-MEL-2): 141 µM (inactive)
GI50 (SK-MEL-5): 32.4 µM (inactive)
GI50 (SK-OV-3): 230 µM (inactive)
GI50 (SN12C): 34.9 µM (inactive)
GI50 (SNB-19): 238 µM (inactive)
GI50 (SNB-75): 28.8 µM (inactive)
GI50 (SNB-78): 28.1 µM (inactive)
GI50 (SW-620): 23.7 µM (inactive)
GI50 (TK-10): 286 µM (inactive)
GI50 (U-251): 331 µM (inactive)
GI50 (UACC-257): 30.1 µM (inactive)
GI50 (UACC-62): 22.6 µM (inactive)
GI50 (UO-31): 182 µM (inactive)
GI50 (XF498): > 100 µM (inactive)
